From US20200071316A1, “ACTIVATORS OF THE RETINOIC ACID INDUCIBLE GENE "RIG-I" PATHWAY AND METHODS OF USE THEREOF” (Kineta Immuno-Oncology LLC, priority 2018, published 2020)
Marks after values point to notes of the source that are not given here.

Legend:
[1] = system: CXCL10 secretion by CT26 cells; test: RIG-I dependent CXCL10 secretion by CT26 colon carcinoma cells (ELISA); format: cell-based, murine; details: 24 h
Method in brief: (§1)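 Murine CT26 colon carcinoma cells, and CRISPR-generated RIG-I knockout CT26 cells, were seeded at 1×10^4 cells/well and grown 24 h at 37 °C, 5% CO2, then treated with compounds at 5 to 20 μM. CXCL10 in supernatants was measured by ELISA 24 h after stimulation.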

[2] = system: THP1-Lucia ISG IRF3 −/− cells; test: IRF3-deficient THP1-Lucia ISG IRF3 −/− reporter assay (counter-screen); format: cell-based; details: Homo sapiens, 18 h after stimulation, read-out: THP1 ISG IRF3 −/−: fold increase of luciferase activity over background; for fold induction at 10 µM: 10 μM compound
Method in brief: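 PMA-differentiated (100 ng/ml) reporter cells carrying ISRE/ISG54 minimal promoter-driven secreted luciferase were stimulated with compounds at 5–20 μM (mostly 10 μM). Luciferase measured 18 h later and expressed as fold increase over untreated background, binned from "−" (<2.4-fold) to "+++++" (≥40-fold).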

[3] = system: IRF3 signaling pathway (IRF-inducible ISG54 promotor) in THP1-Lucia ISG cells; test: THP1-Lucia ISG reporter assay: induction of IRF3-dependent luciferase activity; format: cell-based; details: Homo sapiens, PMA-differentiated cells, 18 h after stimulation, read-out: THP1 ISG: fold increase of IRF3-dependent luciferase activity over background; for fold induction at 10 µM: 10 μM compound
Method in brief: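 PMA-differentiated (100 ng/ml) reporter cells, parental and IRF3−/−, stimulated with compounds at 5–20 μM (mostly 10 μM). Secreted luciferase measured 18 h later. Scored as fold increase over untreated background in bands from "−" (<2.4-fold) to "+++++" (≥40-fold).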

[4] = system: RIG-I deficient CT26 RIG-1−/− cells; test: CXCL10 secretion in RIG-I deficient CT26 RIG-1−/− cells (ELISA); format: cell-based, murine; details: 24 h
Method in brief: as §1

SMILES	CXCL10 secretion by CT26 cells ([1]; 10 μM compound)	fold induction at 10 µM [2]	fold induction at 10 µM [3]	CXCL10 secretion by CT26 RIG-I −/− cells ([4]; 10 μM compound)	CXCL10 secretion by CT26 cells ([1]; 5 μM compound (**))	fold induction at 5 µM ([2]; 5 μM compound (**))	fold induction at 5 µM ([3]; 5 μM compound (**))	CXCL10 secretion by CT26 RIG-I −/− cells ([4]; 5 μM compound (**))	fold induction at 20 µM ([2]; 20 μM compound (*))	fold induction at 20 µM ([3]; 20 μM compound (*))
O=C(Nc1cc2ccc(S(=O)(=O)N3CCCC3)cc2s1)c1cc2ccsc2cc1OCCCCN1CCOCC1 [Example 72, 6-[4-(morpholin-4-yl)butoxy]-N-[6-(pyrrolidine-1-sulfonyl)-1-benzothiophen-2-yl]-1-benzothiophene-5-carboxamide]	++++ (“++++” indicates 800 to 1599 pg/mL)	< 2.4	20 to 39	− (“−” indicates less than 100 pg/mL)	–	–	–	–	–	–
O=C(Nc1nc2ccc(SC(F)(F)F)cc2s1)c1ccc2ccccc2c1 [Example 9, N-{6-[(trifluoromethyl)sulfanyl]-1,3-benzothiazol-2-yl}naphthalene-2-carboxamide]	+++ (“+++” indicates 400-799 pg/mL)	< 2.4	5 to 9.9	− (“−” indicates less than 100 pg/mL)	–	–	–	–	–	–
O=C(Nc1nc2ccc(S(=O)(=O)N3CCCC3)cc2s1)c1sc2ccccc2c1OCCN1CCOCC1 [Example 84, 3-[2-(morpholin-4-yl)ethoxy]-N-[6-(pyrrolidine-1-sulfonyl)-1,3-benzothiazol-2-yl]-1-benzothiophene-2-carboxamide]	++ (“++” indicates 200-399 pg/mL)	< 2.4	5 to 9.9	− (“−” indicates less than 100 pg/mL)	–	–	–	–	–	–
O=C(Nc1ccc2nc(NC(=O)c3ccc4ccccc4c3)sc2c1)c1ccccc1 [Example 6, N-(6-benzamido-1,3-benzothiazol-2-yl)naphthalene-2-carboxamide]	++ (“++” indicates 200-399 pg/mL)	< 2.4	20 to 39	− (“−” indicates less than 100 pg/mL)	–	–	–	–	–	–
COC(=O)c1ccc2nc(NC(=O)c3cc4ccccc4cc3OCCN3CCOCC3)sc2c1 [Example 69, methyl 2-{3-[2-(morpholin-4-yl)ethoxy]naphthalene-2-amido}-1,3-benzothiazole-6-carboxylate]	–	–	–	–	++** (“++” indicates 200-399 pg/mL)	< 2.4	5 to 9.9	−** (“−” indicates less than 100 pg/mL)	–	–
O=C(Nc1cc2ccc(S(=O)(=O)N3CCCC3)cc2s1)c1cc2ccccc2cc1OCCN1CCOCC1 [Example 74, 3-[2-(morpholin-4-yl)ethoxy]-N-[6-(pyrrolidine-1-sulfonyl)-1-benzothiophen-2-yl]naphthalene-2-carboxamide]	+++ (“+++” indicates 400-799 pg/mL)	< 2.4	10 to 19	− (“−” indicates less than 100 pg/mL)	–	–	–	–	–	–
O=C(Nc1nc2ccc([N+](=O)[O-])cc2s1)c1cc2ccccc2cc1OCCN1CCOCC1 [Example 20, 3-[2-(morpholin-4-yl)ethoxy]-N-(6-nitro-1,3-benzothiazol-2-yl)naphthalene-2-carboxamide]	–	< 2.4	10 to 19	–	+** (“+” indicates 100-199 pg/mL)	–	–	−** (“−” indicates less than 100 pg/mL)	–	–
O=C(Nc1nc2ccc(S(=O)(=O)N3CCC3)cc2s1)c1cc2ccccc2cc1OCCN1CCOCC1 [Example 35, N-[6-(azetidine-1-sulfonyl)-1,3-benzothiazol-2-yl]-3-[2-(morpholin-4-yl)ethoxy]naphthalene-2-carboxamide]	+ (“+” indicates 100-199 pg/mL)	< 2.4	20 to 39	− (“−” indicates less than 100 pg/mL)	–	–	–	–	–	–
O=C(Nc1nc2ccc(NC(=O)C3CCCCC3)cc2s1)c1cc2ccccc2cc1OCCN1CCOCC1 [Example 21, N-(6-cyclohexaneamido-1,3-benzothiazol-2-yl)-3-[2-(morpholin-4-yl)ethoxy]naphthalene-2-carboxamide]	–	< 2.4	5 to 9.9	–	+** (“+” indicates 100-199 pg/mL)	–	–	−** (“−” indicates less than 100 pg/mL)	–	–
O=C(Nc1nc2ccc(S(=O)(=O)N3CCCC3)cc2s1)c1cc2ccccc2cc1OCCCCN1CCOCC1 [Example 31, 3-[4-(morpholin-4-yl)butoxy]-N-[6-(pyrrolidine-1-sulfonyl)-1,3-benzothiazol-2-yl]naphthalene-2-carboxamide]	+++++ (“+++++” indicates greater than or equal to 1600 pg/ml)	< 2.4	10 to 19	− (“−” indicates less than 100 pg/mL)	–	–	–	–	–	–
Cn1ccc2cc(OCCN3CCOCC3)c(C(=O)Nc3nc4ccc(S(=O)(=O)N5CCCC5)cc4s3)cc21 [Example 67, 1-methyl-5-[2-(morpholin-4-yl)ethoxy]-N-[6-(pyrrolidine-1-sulfonyl)-1,3-benzothiazol-2-yl]-1H-indole-6-carboxamide]	++++ (“++++” indicates 800 to 1599 pg/mL)	< 2.4	20 to 39	− (“−” indicates less than 100 pg/mL)	–	–	–	–	–	–
O=C(Nc1nc2ccc(S(=O)(=O)N3CCCC3)cc2s1)c1ccc(-c2ccccc2)cc1OCCCCN1CCOCC1 [Example 41, 3-[4-(morpholin-4-yl)butoxy]-N-[6-(pyrrolidine-1-sulfonyl)-1,3-benzothiazol-2-yl]-[1,1′-biphenyl]-4-carboxamide]	+++++ (“+++++” indicates greater than or equal to 1600 pg/ml)	< 2.4	20 to 39	− (“−” indicates less than 100 pg/mL)	–	–	–	–	–	–
O=C(Nc1cc2ccc(S(=O)(=O)N3CCCC3)cc2s1)c1cc2c(cc1OCCCCN1CCOCC1)OCO2 [Example 73, 6-[4-(morpholin-4-yl)butoxy]-N-[6-(pyrrolidine-1-sulfonyl)-1-benzothiophen-2-yl]-2H-1,3-benzodioxole-5-carboxamide]	++++ (“++++” indicates 800 to 1599 pg/mL)	< 2.4	20 to 39	− (“−” indicates less than 100 pg/mL)	–	–	–	–	–	–
Cn1c(C(=O)Nc2nc3ccc(S(=O)(=O)N4CCC4)cc3s2)cc2ccccc21 [Example 51, N-[6-(azetidine-1-sulfonyl)-1,3-benzothiazol-2-yl]-1-methyl-1H-indole-2-carboxamide]	+ (“+” indicates 100-199 pg/mL)	< 2.4	2.4 to 4.9	− (“−” indicates less than 100 pg/mL)	–	–	–	–	–	–
O=C(Cc1ccc2nc(NC(=O)c3ccc4ccccc4c3)sc2c1)NC1CC1 [Example 12, N-{6-[(cyclopropyl-carbamoyl)methyl]-1,3-benzothiazol-2-yl}naphthalene-2-carboxamide]	+++ (“+++” indicates 400-799 pg/mL)	–	–	− (“−” indicates less than 100 pg/mL)	–	–	–	–	< 2.4	2.4 to 4.9
O=C(Nc1nc2ccc(S(=O)(=O)N3CCCCC3)cc2s1)c1cc2ccccc2cc1OCCCCN1CCOCC1 [Example 38, 3-[4-(morpholin-4-yl)butoxy]-N-[6-(piperidine-1-sulfonyl)-1,3-benzothiazol-2-yl]naphthalene-2-carboxamide]	+++ (“+++” indicates 400-799 pg/mL)	< 2.4	10 to 19	− (“−” indicates less than 100 pg/mL)	–	–	–	–	–	–
O=C(Nc1cc2ccc(S(=O)(=O)N3CCCC3)cc2s1)c1ccc(-c2ccccc2)cc1OCCN1CCOCC1 [Example 71, 3-[2-(morpholin-4-yl)ethoxy]-N-[6-(pyrrolidine-1-sulfonyl)-1-benzothiophen-2-yl]-[1,1′-biphenyl]-4-carboxamide]	− (“−” indicates less than 100 pg/mL)	< 2.4	< 2.4	− (“−” indicates less than 100 pg/mL)	–	–	–	–	–	–
O=C(Nc1nc2ccc(C(=O)Nc3c(Cl)cccc3Cl)cc2s1)c1ccc2ncccc2c1 [Example 15, N-{6-[(2,6-dichlorophenyl)carbamoyl]-1,3-benzothiazol-2-yl}quinoline-6-carboxamide]	++++ (“++++” indicates 800 to 1599 pg/mL)	< 2.4	20 to 39	− (“−” indicates less than 100 pg/mL)	–	–	–	–	–	–
